Molecular target: T1, STING (Homo sapiens, UniProt Q86WV6, G230A/H232R/R293Q/R71H)
T1 construct: host or cells: THP1-Dual KO-IFNAR2 cells
Test: STING reporter assay: luciferase reporter activity in THP1-Dual KO-IFNAR2 cells stimulated with 2′3′cGAMP
Assay type: cell-based
Settings: 15 μM 2′3′cGAMP, 24h, read-out: hSTING EC50
How it was run: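 THP1-Dual KO-IFNAR2 cells (2×10E6 cells/mL) were exposed to compounds at 0.0017-100 μM, then stimulated with 2′3′cGAMP (15 μM final) transfected via Lipofectamine 2000. After 24h at 37° C., secreted luciferase in supernatant was read by QUANTI-Luc luminescence; EC50 derived from concentration-response.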

T1 sequence (Q86WV6 whole entry R71H/G230A/H232R/R293Q): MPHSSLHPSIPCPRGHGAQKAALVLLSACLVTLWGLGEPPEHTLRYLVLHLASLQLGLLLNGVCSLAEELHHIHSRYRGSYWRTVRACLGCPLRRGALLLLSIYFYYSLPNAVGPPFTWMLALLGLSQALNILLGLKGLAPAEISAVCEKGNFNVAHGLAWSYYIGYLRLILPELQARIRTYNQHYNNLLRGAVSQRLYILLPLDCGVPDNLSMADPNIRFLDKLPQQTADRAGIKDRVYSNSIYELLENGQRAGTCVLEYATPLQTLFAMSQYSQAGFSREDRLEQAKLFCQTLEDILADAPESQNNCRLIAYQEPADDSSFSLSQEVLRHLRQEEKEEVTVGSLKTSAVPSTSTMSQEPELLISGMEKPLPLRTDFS

- EC50: 5 to 100 µM
SMILES: O=C(Nc1c[nH]c2ccc(-c3cnn(-c4ccc(C(F)(F)F)cc4)c3)cc12)[C@@H]1CC(F)(F)CN1 [compound 184, (S)-4,4-difluoro-N-(5-(1-(4-(trifluoromethyl)phenyl)-1H-pyrazol-4-yl)-1H-indol-3-yl)pyrrolidine-2-carboxamide]

Source: patent publication US20230365553A1, “COMPOUNDS AND COMPOSITIONS FOR TREATING CONDITIONS ASSOCIATED WITH STING ACTIVITY” (IFM Due, Inc., priority 2020, published 2023)
